Measured values: ChEMBL document CHEMBL3885881, “DrugMatrix”

Species: Rattus norvegicus
Experiment: DrugMatrix - Regimen: Daily Repeat
Format: toxicity, organism-based, Sprague-Dawley
Design: regimen Daily Repeat, gender Male, age 6-8 weeks
Conditions: in vivo, po, route oral GAVAGE, vehicle .5 % CMC; for ABSOLUTE BASOPHIL / ABSOLUTE EOSINOPHIL / ABSOLUTE LYMPHOCYTE / ABSOLUTE MONOCYTE / ABSOLUTE SEGMENTED NEUTROPHIL / BASOPHIL / EOSINOPHIL / ERYTHROCYTE COUNT / HEMATOCRIT / HEMOGLOBIN / LEUKOCYTE COUNT / LYMPHOCYTE / MEAN CORPUSCULAR HEMOGLOBIN / MEAN CORPUSCULAR VOLUME / MONOCYTE / NEUTROPHIL / NUCLEATED RED BLOOD CELLS / PLATELET COUNT: tissue Blood; for ALANINE AMINOTRANSFERASE / ALBUMIN / ALKALINE PHOSPHATASE / ASPARTATE AMINOTRANSFERASE / BLOOD UREA NITROGEN / CARBON DIOXIDE / CHLORIDE / CHOLESTEROL / CREATINE PHOSPHOKINASE / CREATININE / GLUCOSE / LACTATE DEHYDROGENASE / LIPASE / PHOSPHORUS / POTASSIUM / SODIUM / TOTAL BILIRUBIN / TOTAL PROTEIN / URIC ACID: tissue Plasma
[1] = 68 mg/kg, 72 h, dose level Low, time 3 day
[2] = 68 mg/kg, 120 h, dose level Low, time 5 day
[3] = 750 mg/kg, 72 h, dose level High, time 3 day
[4] = 750 mg/kg, 120 h, dose level High, time 5 day

**Q.** What does the source list for C(=C\c1ccccc1)/CN1CCN(C(c2ccccc2)c2ccccc2)CC1 [CINNARIZINE]?
**A.** ABSOLUTE BASOPHIL [1]: 0 CELLS/uL; ABSOLUTE EOSINOPHIL [1]: 0 CELLS/uL; ABSOLUTE LYMPHOCYTE [1]: 14250 CELLS/uL; ABSOLUTE MONOCYTE [1]: 268.67 CELLS/uL; ABSOLUTE SEGMENTED NEUTROPHIL [1]: 1614.67 CELLS/uL; BASOPHIL [1]: 0%; EOSINOPHIL [1]: 0%; ERYTHROCYTE COUNT [1]: 5.37 x10E6/uL; HEMATOCRIT [1]: 33.93%; HEMOGLOBIN [1]: 12.87 G/DL; LEUKOCYTE COUNT [1]: 16.13 x10E3/uL; LYMPHOCYTE [1]: 88.33%; MEAN CORPUSCULAR HEMOGLOBIN [1]: 24 pg; MEAN CORPUSCULAR VOLUME [1]: 63.2 fL; MONOCYTE [1]: 1.67%; NEUTROPHIL [1]: 10%; NUCLEATED RED BLOOD CELLS [1]: 0 /100WBC; PLATELET COUNT [1]: 1225 x10E3/uL; ALANINE AMINOTRANSFERASE [1]: 45.33 u/L; ALBUMIN [1]: 4.37 G/DL; ALKALINE PHOSPHATASE [1]: 323 u/L; ASPARTATE AMINOTRANSFERASE [1]: 68.67 u/L; BLOOD UREA NITROGEN [1]: 15.33 mg/dL; CARBON DIOXIDE [1]: 24.33 mmol/L; CHLORIDE [1]: 102 MEQ/L; CHOLESTEROL [1]: 67.33 mg/dL; CREATINE PHOSPHOKINASE [1]: 220.67 u/L; CREATININE [1]: 0.17 mg/dL; GLUCOSE [1]: 136.33 mg/dL; LACTATE DEHYDROGENASE [1]: 186 u/L; LIPASE [1]: 9 u/L; PHOSPHORUS [1]: 11.57 mg/dL; POTASSIUM [1]: 6.72 MEQ/L; SODIUM [1]: 145.13 MEQ/L; TOTAL BILIRUBIN [1]: 0.2 mg/dL; TOTAL PROTEIN [1]: 5.33 G/DL; URIC ACID [1]: 1.7 mg/dL; ABSOLUTE BASOPHIL [2]: 0 CELLS/uL; ABSOLUTE EOSINOPHIL [2]: 62.67 CELLS/uL; ABSOLUTE LYMPHOCYTE [2]: 17347 CELLS/uL; ABSOLUTE MONOCYTE [2]: 686 CELLS/uL; ABSOLUTE SEGMENTED NEUTROPHIL [2]: 2204.33 CELLS/uL; BASOPHIL [2]: 0%; EOSINOPHIL [2]: 0.33%; ERYTHROCYTE COUNT [2]: 5.91 x10E6/uL; HEMATOCRIT [2]: 36.67%; HEMOGLOBIN [2]: 13.63 G/DL; LEUKOCYTE COUNT [2]: 20.3 x10E3/uL; LYMPHOCYTE [2]: 85.33%; MEAN CORPUSCULAR HEMOGLOBIN [2]: 23.13 pg; MEAN CORPUSCULAR VOLUME [2]: 62.13 fL; MONOCYTE [2]: 3.33%; NEUTROPHIL [2]: 11%; NUCLEATED RED BLOOD CELLS [2]: 0 /100WBC; PLATELET COUNT [2]: 1382.33 x10E3/uL; ALANINE AMINOTRANSFERASE [2]: 44 u/L; ALBUMIN [2]: 4.3 G/DL; ALKALINE PHOSPHATASE [2]: 307 u/L; ASPARTATE AMINOTRANSFERASE [2]: 78.33 u/L; BLOOD UREA NITROGEN [2]: 21.67 mg/dL; CARBON DIOXIDE [2]: 26 mmol/L; CHLORIDE [2]: 107.33 MEQ/L; CHOLESTEROL [2]: 53.33 mg/dL; CREATINE PHOSPHOKINASE [2]: 288.33 u/L; CREATININE [2]: 0.19 mg/dL; GLUCOSE [2]: 133 mg/dL; LACTATE DEHYDROGENASE [2]: 263 u/L; LIPASE [2]: 8.67 u/L; PHOSPHORUS [2]: 11.3 mg/dL; POTASSIUM [2]: 6.89 MEQ/L; SODIUM [2]: 145.37 MEQ/L; TOTAL BILIRUBIN [2]: 0.17 mg/dL; TOTAL PROTEIN [2]: 6.13 G/DL; URIC ACID [2]: 1.5 mg/dL; ABSOLUTE BASOPHIL [3]: 0 CELLS/uL; ABSOLUTE EOSINOPHIL [3]: 121.67 CELLS/uL; ABSOLUTE LYMPHOCYTE [3]: 10962.67 CELLS/uL; ABSOLUTE MONOCYTE [3]: 242 CELLS/uL; ABSOLUTE SEGMENTED NEUTROPHIL [3]: 773.67 CELLS/uL; BASOPHIL [3]: 0%; EOSINOPHIL [3]: 1%; ERYTHROCYTE COUNT [3]: 6.6 x10E6/uL; HEMATOCRIT [3]: 41.67%; HEMOGLOBIN [3]: 15.33 G/DL; LEUKOCYTE COUNT [3]: 12.1 x10E3/uL; LYMPHOCYTE [3]: 90.67%; MEAN CORPUSCULAR HEMOGLOBIN [3]: 23.23 pg; MEAN CORPUSCULAR VOLUME [3]: 63.07 fL; MONOCYTE [3]: 2%; NEUTROPHIL [3]: 6.33%; NUCLEATED RED BLOOD CELLS [3]: 0 /100WBC; PLATELET COUNT [3]: 1456.67 x10E3/uL; ALANINE AMINOTRANSFERASE [3]: 52.33 u/L; ALBUMIN [3]: 4.3 G/DL; ALKALINE PHOSPHATASE [3]: 423.33 u/L; ASPARTATE AMINOTRANSFERASE [3]: 79.33 u/L; BLOOD UREA NITROGEN [3]: 19 mg/dL; CARBON DIOXIDE [3]: 26.67 mmol/L; CHLORIDE [3]: 99.33 MEQ/L; CHOLESTEROL [3]: 58.67 mg/dL; CREATINE PHOSPHOKINASE [3]: 294.67 u/L; CREATININE [3]: 0.19 mg/dL; GLUCOSE [3]: 138 mg/dL; LACTATE DEHYDROGENASE [3]: 240.67 u/L; LIPASE [3]: 10 u/L; PHOSPHORUS [3]: 11.73 mg/dL; POTASSIUM [3]: 6.79 MEQ/L; SODIUM [3]: 141.93 MEQ/L; TOTAL BILIRUBIN [3]: 0.17 mg/dL; TOTAL PROTEIN [3]: 6.1 G/DL; URIC ACID [3]: 1.8 mg/dL; ABSOLUTE BASOPHIL [4]: 0 CELLS/uL; ABSOLUTE EOSINOPHIL [4]: 0 CELLS/uL; ABSOLUTE LYMPHOCYTE [4]: 10935.67 CELLS/uL; ABSOLUTE MONOCYTE [4]: 287 CELLS/uL; ABSOLUTE SEGMENTED NEUTROPHIL [4]: 1277.33 CELLS/uL; BASOPHIL [4]: 0%; EOSINOPHIL [4]: 0%; ERYTHROCYTE COUNT [4]: 6.35 x10E6/uL; HEMATOCRIT [4]: 38.33%; HEMOGLOBIN [4]: 14.23 G/DL; LEUKOCYTE COUNT [4]: 12.5 x10E3/uL; LYMPHOCYTE [4]: 87.67%; MEAN CORPUSCULAR HEMOGLOBIN [4]: 22.4 pg; MEAN CORPUSCULAR VOLUME [4]: 60.4 fL; MONOCYTE [4]: 2.33%; NEUTROPHIL [4]: 10%; NUCLEATED RED BLOOD CELLS [4]: 0 /100WBC; PLATELET COUNT [4]: 1123.67 x10E3/uL; ALANINE AMINOTRANSFERASE [4]: 56 u/L; ALBUMIN [4]: 4.1 G/DL; ALKALINE PHOSPHATASE [4]: 361.67 u/L; ASPARTATE AMINOTRANSFERASE [4]: 78.67 u/L; BLOOD UREA NITROGEN [4]: 17.67 mg/dL; CARBON DIOXIDE [4]: 27 mmol/L; CHLORIDE [4]: 103.67 MEQ/L; CHOLESTEROL [4]: 72.33 mg/dL; CREATINE PHOSPHOKINASE [4]: 366.67 u/L; CREATININE [4]: 0.16 mg/dL; GLUCOSE [4]: 155.33 mg/dL; LACTATE DEHYDROGENASE [4]: 194.67 u/L; LIPASE [4]: 10 u/L; PHOSPHORUS [4]: 12.9 mg/dL; POTASSIUM [4]: 7.06 MEQ/L; SODIUM [4]: 147.1 MEQ/L; TOTAL BILIRUBIN [4]: 0.17 mg/dL; TOTAL PROTEIN [4]: 5.9 G/DL; URIC ACID [4]: 2 mg/dL
